# Experimental data reported in publication doi:10.1101/2024.03.07.583918v2 (biorxiv, 2024).
# Target: T1, CheR (Pectobacterium atrosepticum, UniProt Q6D6I8)
# T1 sequence (Q6D6I8 1-290): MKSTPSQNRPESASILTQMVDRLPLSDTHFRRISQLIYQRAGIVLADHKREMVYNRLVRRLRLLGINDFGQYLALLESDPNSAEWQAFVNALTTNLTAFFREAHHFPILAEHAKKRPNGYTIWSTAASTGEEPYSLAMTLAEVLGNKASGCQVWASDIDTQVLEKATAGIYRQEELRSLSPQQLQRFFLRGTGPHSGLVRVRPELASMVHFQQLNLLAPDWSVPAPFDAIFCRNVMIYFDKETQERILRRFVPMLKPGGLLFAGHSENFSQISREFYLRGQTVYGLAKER
# Experiment: isothermal titration calorimetry
# Assay type: binding
row,SMILES,Kd
1,Nc1ncnc2c1ncn2[C@@H]1O[C@H](CSCC[C@H](N)C(=O)O)[C@@H](O)[C@H]1O [SAH],0.48 ± 0.02 µM
2,C[S+](CC[C@H](N)C(=O)O)C[C@H]1O[C@@H](n2cnc3c(N)ncnc32)[C@H](O)[C@@H]1O (some centres unmarked) [SAM],140 ± 20 µM
